This data set is described as follows: In vivo oral absorption screen / pharmacokinetic assay in the rat. The settings on record: male, Sprague Dawley, rat plasma, dose of 5 mg/kg in Methocel:Tween20 (0.5%:0.3%), read-out: area under the curve (AUC). From the text: More explicitly, the following assay, an in vivo oral absorption screen, was used to determine plasma levels of test compounds in a rat after oral administration: The selection of compounds to be pooled into a “cassette” was based on their structural similarity and physicochemical properties. A solid phase extraction method applicable to all the selected compounds was established. Based on the initial testing where each compound was spiked into rat plasma and run through HPLC or HPLC/MS at a concentration of 0.5 μM, the retention time, ionic mass, and the possible separation among compounds by HPLC and/or HPLC/MS were used as basis for pooling 3–4 compounds into one “cassette”. Each “cassette” contains 3–4 compounds at 5 or 4 mg/kg for each compound. The cassettes were prepared as an oral suspension in 0.5% aqueous methylcellulose and 0.3% of polyoxyethylene (20) sorbiton monooleate (Tween-80). The dosing volume was 10 ml/kg via oral gavage. Male Sprague Dawley rats were fasted overnight in individual cages, with access to aqueous 10% dextrose. Two rats were dosed with each “cassette”. Plasma samples (˜1 ml) were collected at 1 and 2 h post-dosing from the 2 rats and pooled for extraction and analysis. […] Samples were analyzed by HPLC and HPLC/MS for comparison purpose. […]

The structures appear in SMILES notation.

As a reminder, the AUC is concentration integrated over time. On to `COc1ccc2c(O[C@@H]3C[C@H]4C(=O)N[C@]5(C(=O)O)C[C@H]5/C=C\CCCCC[C@H](NC(=O)OC5CCCC5)C(=O)N4C3)cc(-c3csc(NC4CCCC4)n3)nc2c1` [Compound 101], for which the AUC amounted to 16 µM·h.

Take `COc1ccc2c(O[C@@H]3C[C@H]4C(=O)N[C@]5(C(=O)O)C[C@H]5/C=C\CCCCC[C@H](NC(=O)OC5CCCC5)C(=O)N4C3)cc(-c3csc(NC4CCCCC4)n3)nc2c1` [Compound 102]: the AUC is 18 µM·h.

The values above are taken from patent US7119072B2, “Macrocyclic peptides active against the hepatitis C virus” (Boehringer Ingelheim (Canada) Ltd., priority 2002, dated 2006).
